In patent US5223515A, “Injectable solution containing a pyridyl methylsulfinylbenzimidazole” (Takeda Chemical Industries, Ltd., priority 1988, dated 1993):
≈ marks a conversion by molar mass, not a printed value.

Assays:
[1] = Solubility of Compound (I-1) in water at different pH; type: physicochemical
[2] = Stability of Compound (I-1) in aqueous solution; type: physicochemical
[3] = Example 2 / Table 2: stability of Compound (I-1) in the solution state (2 mg/ml, mixed solvents); type: physicochemical
Method: Ethanol, polyethylene glycol 400, propylene glycol and water were mixed at the composition ratios as shown in Table 2 illustrated below, and 2 mg of Compound (I-1) was dissolved in 1 ml each of the resulting solvents, respectively, followed by adjustment to pH 9.0 with 5N-aqueous sodium hydroxide solution. As a control, there were prepared a suspension of 2 mg of Compound (I-1) in 1 ml of water being adjusted to pH 9.0 with 5N-aqueous sodium hydroxide solution and an aqueous solution of 2 mg of Compound (I-1) in 1 ml of 0.01N aqueous sodium hydroxide solution.

[4] = Example 3 / Table 3: stability of Compound (I-1) in the solution state (5 mg/ml, mixed solvents); type: physicochemical
Method: Ethanol, polyethylene glycol 400, propylene glycol and water were mixed at the composition ratios as shown in Table 3 illustrated below, and 5-mg of Compound (I-1) was dissolved in 1 ml each of the resulting solvents, respectively, followed by adjustment to pH 9.0 with 5N-aqueous sodium hydroxide solution. As a control, there were prepared a suspension of 5 mg of Compound (I-1) in 1 ml of water being adjusted to pH 9.0 with 5N-aqueous sodium hydroxide solution and an aqueous solution of 5 mg of Compound (I-1) in 1 ml of 0.02N aqueous sodium hydroxide solution. […] (A control of the suspension was not subjected to sterile-filtration).
These test specimens as filled into ampoules were investigated for each item of appearance, pH and clarity immediately after preparation and after storage at 25° C.

[5] = Example 4 / Table 4: stability of lyophilized Compound (I-1) after being dissolved in vials; type: physicochemical; details: for Solubility: lyophilized powder
Method: A 1000 mg quantity of Compound (I-1) was dispersed in distilled water for
injection, and 3 ml of 1N-aqueous sodium hydroxide solution was added to
dissolve the Compound (I-1), followed by addition of water to make up the
total of 50 ml and sterile filtration by the conventional method. The
resulting filtrate was filled in 1 ml portions into vials of a 12 cm^3
capacity, followed by lyophilization by means of the conventional
technique. The lyophilized powder as contained in vials was dissolved in
in Solvent A (which was composed of 50 mg of N-methylglucamine, 0.27 ml of
1N-hydrochloric acid and 2 ml of propylene glycol being admixed with
ethanol to make up the total of 4 ml), Solvent B (which was composed of 50
mg of N-methylglucamine, 0.27 ml of 1N-hydrochloric acid, 1.2 ml of
polyethylene glycol 400 and 1.2 ml of ethanol being admixed with distilled
water for injection to make up the total of 4 ml), Solvent C (which was
composed of 50 mg of N-methylglucamine, 0.27 ml of 1N-hydrochloric acid,
1.2 ml of ethanol and 1.2 ml of propylene glycol being admixed with
distilled water for injection to make up the total of 4 ml and Solvent D
(which was composed of 50 mg of N-methylglucamine, 0.27 ml of
1N-hydrochloric acid and 2.5 ml of polyethylene glycol 400 bing admixed
with distilled water for injection to make up the total of 4 ml),
respectively, to perform inspection for their solubilities as well as to
conduct investigation into appearance, clarity and contents immediately
after dissolution and after storage at 25° C. for 24 hours.

[6] = Example 1 / Table 1: stability of Compound (I-1) in the solution state (ethanol, propylene glycol); details: for Content: HPLC
Text: Note, *As measured by use of highperformance liquid chromatography (HPLC)
chromatographic conditions of HPLC:
Carrier; Nucleosil 5 C18 (supplied by GasChro Kogyo K.K. of Japan)
Solvent; Methanol:water:triethylamine (60:40:1, pH 7)
Detection method; UV spectrophotometry at 285 nm

[7] = control: 2 mg in 0.01 N aq. sodium hydroxide 1 ml, after preparation
[8] = control: 2 mg in 0.01 N aq. sodium hydroxide 1 ml, after storage at 25° C./24 hrs.
[9] = 5 mg, PEG-400 0.3 ml, ethanol 0.3 ml, water 0.4 ml, after preparation
[10] = 5 mg, PEG-400 0.4 ml, water 0.6 ml, after preparation
[11] = 5 mg, ethanol 0.3 ml, propylene glycol 0.3 ml, water 0.4 ml, after preparation
[12] = 5 mg, ethanol 0.6 ml, water, after preparation
[13] = control: 5 mg in 0.02 N aq. sodium hydroxide 1 ml, after preparation
[14] = control: 5 mg in 0.02 N aq. sodium hydroxide 1 ml, after storage at 25° C./24 hrs.
[15] = Solvent A, after storage at 25° C. for 24 hrs.
[16] = Solvent B, after storage at 25° C. for 24 hrs.
[17] = Solvent C, after storage at 25° C. for 24 hrs.
[18] = Solvent D, after storage at 25° C. for 24 hrs.
[19] = Solvents A-D, after storage for 24 hours
[20] = 2 mg in ethanol 1 ml, after preparation
[21] = 2 mg in ethanol 1 ml, after storage at 25° C./24 hrs.
[22] = 2 mg in propylene glycol 1 ml, after preparation
[23] = 2 mg in propylene glycol 1 ml, after storage at 25° C./24 hrs.

Q: What does the source list for `Cc1c(OCC(F)(F)F)ccnc1C[S+]([O-])c1nc2ccccc2[nH]1` (centres unmarked) [Compound (I-1), 2-(3-methyl-4-trifluoroethoxy-2-pyridyl)methylsulfinylbenzimidazole]?
A: Solubility ([1]; pH 11, water): 1 mg/mL (≈ 2.71 mM); Solubility ([1]; pH 13, water): 33 mg/mL (≈ 89.3 mM); stability in an aqueous solution ([2]; alkaline solution): satisfactorily stable; appearance of aqueous solution ([2]; neutral to acidic range, short period of time): dark purple; stability in an aqueous solution ([2]; pH decreased to the neutral to acidic range): less stable; Appearance ([3]; 2 mg, PEG-400 0.05 ml, ethanol 0.35 ml, water 0.6 ml, after preparation): Colorless; pH ([3]; 2 mg, PEG-400 0.05 ml, ethanol 0.35 ml, water 0.6 ml, after preparation (adjusted)): 9.0; Content ([3]; 2 mg, PEG-400 0.05 ml, ethanol 0.35 ml, water 0.6 ml, after preparation (taken as 100.0%)): 100.0%; Content ([3]; 2 mg, PEG-400 0.05 ml, ethanol 0.35 ml, water 0.6 ml, after storage at 25° C./24 hrs.): 98.0%; Appearance ([3]; 2 mg, PEG-400 0.05 ml, propylene glycol 0.35 ml, water 0.6 ml, after preparation): Colorless; pH ([3]; 2 mg, PEG-400 0.05 ml, propylene glycol 0.35 ml, water 0.6 ml, after preparation (adjusted)): 9.0; Content ([3]; 2 mg, PEG-400 0.05 ml, propylene glycol 0.35 ml, water 0.6 ml, after preparation (taken as 100.0%)): 100.0%; Content ([3]; 2 mg, PEG-400 0.05 ml, propylene glycol 0.35 ml, water 0.6 ml, after storage at 25° C./24 hrs.): 94.4%; Appearance ([3]; 2 mg, PEG-400 0.4 ml, water 0.6 ml, after preparation): Colorless; pH ([3]; 2 mg, PEG-400 0.4 ml, water 0.6 ml, after preparation (adjusted)): 9.0; Content ([3]; 2 mg, PEG-400 0.4 ml, water 0.6 ml, after preparation (taken as 100.0%)): 100.0%; Content ([3]; 2 mg, PEG-400 0.4 ml, water 0.6 ml, after storage at 25° C./24 hrs.): 91.8%; Appearance ([3]; 2 mg, ethanol 0.5 ml, propylene glycol 0.5 ml, after preparation): Colorless; pH ([3]; 2 mg, ethanol 0.5 ml, propylene glycol 0.5 ml, after preparation (adjusted)): 9.0; Content ([3]; 2 mg, ethanol 0.5 ml, propylene glycol 0.5 ml, after preparation (taken as 100.0%)): 100.0%; Content ([3]; 2 mg, ethanol 0.5 ml, propylene glycol 0.5 ml, after storage at 25° C./24 hrs.): 98.0%; dissolution of control specimens ([3]; control in water adjusted to same pH as other test specimens, 2 mg/ml): failed to allow adequate dissolution; pH needed to secure dissolution of control specimens ([3]; control, 2 mg/ml): not less than 11; Appearance [3, 7]: Colorless; pH [3, 7]: 11.4; Content ([3]; control: 2 mg in 0.01 N aq. sodium hydroxide 1 ml, after preparation (taken as 100.0%)): 100.0%; Appearance [3, 8]: Colorless; Content [3, 8]: 92.5%; pH ([3]; control: 2 mg in water 1 ml, after preparation (adjusted)): 9.1; Appearance [4, 9]: Colorless; Clarity [4, 9]: Clear; pH ([4]; 5 mg, PEG-400 0.3 ml, ethanol 0.3 ml, water 0.4 ml, after preparation (adjusted)): 9.0; Clarity ([4]; 5 mg, PEG-400 0.3 ml, ethanol 0.3 ml, water 0.4 ml, after storage at 25° C./24 hrs.): Clear; Appearance [4, 10]: Colorless; Clarity [4, 10]: Clear; pH ([4]; 5 mg, PEG-400 0.4 ml, water 0.6 ml, after preparation (adjusted)): 9.0; Clarity ([4]; 5 mg, PEG-400 0.4 ml, water 0.6 ml, after storage at 25° C./24 hrs.): Clear; Appearance [4, 11]: Colorless; Clarity [4, 11]: Clear; pH ([4]; 5 mg, ethanol 0.3 ml, propylene glycol 0.3 ml, water 0.4 ml, after preparation (adjusted)): 9.0; Clarity ([4]; 5 mg, ethanol 0.3 ml, propylene glycol 0.3 ml, water 0.4 ml, after storage at 25° C./24 hrs.): Clear; Appearance [4, 12]: Colorless; Clarity [4, 12]: Clear; pH ([4]; 5 mg, ethanol 0.6 ml, water, after preparation (adjusted)): 9.0; Clarity ([4]; 5 mg, ethanol 0.6 ml, water, after storage at 25° C./24 hrs.): Clear; dissolution of control specimens ([4]; control in water adjusted to same pH as other test specimens, 5 mg/ml): failed to allow adequate dissolution; pH needed to secure dissolution of control specimens ([4]; control, 5 mg/ml): not less than 11; Appearance [4, 13]: Colorless; Clarity [4, 13]: Clear; pH [4, 13]: 11.6; Appearance [4, 14]: Colorless; Clarity [4, 14]: Clear; pH ([4]; control: 5 mg in water 1 ml, after preparation (adjusted)): 8.9; pH after dissolution ([5]; Solvent A): 8.7; Appearance ([5]; Solvent A, after dissolution): Colorless; Clarity ([5]; Solvent A, after dissolution): Clear; Content ([5]; Solvent A, after dissolution (taken as 100%)): 100%; Clarity [5, 15]: Clear; Content [5, 15]: 97.0%; pH after dissolution ([5]; Solvent B): 9.0; Appearance ([5]; Solvent B, after dissolution): Colorless; Clarity ([5]; Solvent B, after dissolution): Clear; Content ([5]; Solvent B, after dissolution (taken as 100%)): 100%; Clarity [5, 16]: Clear; Content [5, 16]: 96.5%; pH after dissolution ([5]; Solvent C): 9.0; Appearance ([5]; Solvent C, after dissolution): Colorless; Clarity ([5]; Solvent C, after dissolution): Clear; Content ([5]; Solvent C, after dissolution (taken as 100%)): 100%; Clarity [5, 17]: Clear; Content [5, 17]: 96.7%; pH after dissolution ([5]; Solvent D): 9.0; Appearance ([5]; Solvent D, after dissolution): Colorless; Clarity ([5]; Solvent D, after dissolution): Clear; Content ([5]; Solvent D, after dissolution (taken as 100%)): 100%; Clarity [5, 18]: Clear; Content [5, 18]: 96.1%; Appearance ([5]; Solvents A, B, C, D (one spanning entry), after storage at 25° C. for 24 hrs.): Slightly to lightly green-yellow; change in content [5, 19]: decrease slightly; change in the clarity [5, 19]: no change; changes in appearance ([5]; Solvents A-D, immediately after dissolution and after storage for 24 hours): slight changes; dissolution of lyophilized powder ([5]; all of these solvents (A-D)): dissolved quickly; solubilities of lyophilized powder ([5]; all of these solvents (A-D)): excellent solubilities; Solubility ([5]; Solvent A (propylene glycol/ethanol)): Good; Solubility ([5]; Solvent B (PEG 400/ethanol/water)): Good; Solubility ([5]; Solvent C (ethanol/propylene glycol/water)): Good; Solubility ([5]; Solvent D (PEG 400/water)): Good; Appearance [6, 20]: Colorless; Clarity [6, 20]: Clear; Content ([6]; 2 mg in ethanol 1 ml, after preparation (taken as 100.0%)): 100.0%; Appearance [6, 21]: Yellowish; Clarity [6, 21]: Clear; Content [6, 21]: 99.2%; Appearance [6, 22]: Colorless; Clarity [6, 22]: Clear; Appearance [6, 23]: Light red-purple; Clarity [6, 23]: Clear; change in appearance ([6]; ethanol and propylene glycol, after storage at 25° C. for 24 hours): slight change
